Converted amounts (≈) assume the structure as drawn. Bounds are passed on as bounds.

For series [1], the system named is Lepomis macrochirus. The note with it: acute; duration: 96 hours; mortality.
Series [2] deals with Rattus norvegicus. The note with it: for LD50: acute, mortality.
The test system of series [3] is Apis mellifera. The note with it: acute, mortality.
Series [4] has as its system Ceriodaphnia dubia. The note with it: chronic/long-term; duration: 7 days; reproduction.
The test system of series [5] is Canidae. The note with it: chronic; duration: 1 years; oral; Dog Other; clinical signs.
Series [6] concerns Anas platyrhynchos. The note with it: oral, mortality.
Series [7] deals with Gallus gallus. The note with it: for NOAEL: body weight.
Series [8] has as its system Bovidae. The note with it: oral.
Series [9] relates to Oryctolagus sp. The note with it: no effects.
For series [10], the system named is Anabaena flosaquae. The note with it: acute; duration: 72 hours; biomass.
Series [11] concerns Bibionidae. The note with it: chronic/long-term; duration: 28 days; seedling emergence.
Series [12] deals with Sus scrofa. The note with it: Not specified; for LEL: acute, duration: 3 days, oral, no effects.
Series [13] relates to Plant. The note with it: not reported; other.
The test system of series [14] is Capra sp. The note with it: subchronic; no effects.
Series [15] has as its system Numida meleagris. The note with it: subchronic; duration: 85 days; no effects.
Series [16] relates to Mus musculus.
For series [17], the system named is Pontoscolex corethrurus. The note with it: chronic/long-term; reproduction.
Series [18] concerns Carassius carassius. The note with it: not reported; oral; feed; histopathology: nonneoplastic.
Series [19] has as its system Equus caballus. The note with it: not reported; neurology.
For series [20], the system named is Pelteobagrus fulvidraco. The note with it: subchronic; duration: 10 weeks; oral; feed; histopathology: nonneoplastic.
Series [21] deals with Leuciscus idus. The note with it: acute; duration: 96 hours; mortality.
Series [22] has as its system Macaca mulatta. The note with it: acute; oral; neurology.
Series [23] concerns Oncorhynchus mykiss.
In series [24] the test system is Felidae. The note with it: short-term; duration: 10 days; oral; diet; Cat; no effects.
In series [25] the test system is Neovison vison. The note with it: reproduction developmental; oral; diet; F; reproduction.
Series [26] concerns Meleagris sp. The note with it: short-term; duration: 3 weeks; oral; feed; F; body weight.
Series [27] deals with Anatidae. The note with it: short-term; duration: 17 days; oral; feed; M; histopathology: nonneoplastic.
Series [28] relates to Colinus virginianus. The note with it: acute; oral; diet; mortality.
The test system of series [29] is Tagia sp. The note with it: acute; duration: 14 days; mortality.

Regarding `CNC(=O)Oc1cccc2c1OC(C)(C)C2` [Carbofuran], the LC50 in series [1] is 0.18 µg/mL (≈ 0.814 µM); in [6] (short-term, feed) it was 1.6 mg/kg-day. The LD50 is under 5.6 mg/kg in series [2] (oral); 0.0357 µg/piece in series [3] (dermal); 0.71 mg/kg in series [6] (acute, unspecified, M). Besides, the NOAEL (in general, the highest tested level that showed no adverse finding) in series [2] (reproduction developmental, clinical signs) amounted to 0.1 mg/kg-day; in [5] it was 0.1 mg/kg-day. In addition, the NOEC in series [4] is 0.00016 mg/L.

On to `N#CC(c1ccc(Cl)cc1)c1c(Cl)cc(-n2ncc(=O)[nH]c2=O)cc1Cl` (stereo not given) [Diclazuril], for which the LEL in [7] (subchronic, duration: 37 days, no effects) is 25 mg/kg-day; in [8] (acute, duration: 3 days, no effects) it was at most 5 mg/kg-day; in [9] (repeat dose other, F), 6 mg/kg-day; in series [9] (subchronic, duration: 35 days, oral, diet, M/F, New Zealand), 6 mg/kg-day; in series [12] it was 10 mg/kg-day; in series [14], at most 80 mg/kg. This compound also gave an LEL in series [15] of at most 25 mg/kg. The compound further displayed an NOEC in [10] of over 10.3 µg/L; an NOEC in [11] of 13.3 mg/kg; an NOEC in [13] of 50.3 mg/kg; an NOEC (repeat dose other, other) of over 1 mg/kg-day; an NOEC in series [17] of 50 mg/kg. For the same compound, the NOAEL in series [16] (chronic, duration: 2 years, M, histopathology: nonneoplastic) was 2.9 mg/kg-day.

For `CCCC[C@@H](C)[C@@H](OC(=O)C[C@@H](CC(=O)O)C(=O)O)[C@H](C[C@@H](C)C[C@H](O)CCCC[C@@H](O)C[C@H](O)[C@H](C)N)OC(=O)C[C@@H](CC(=O)O)C(=O)O` [Fumonisin B1], the LOAEL (commonly the lowest dose or exposure tested at which an adverse effect was seen) came to 2 mg/kg-day in series [7] (short-term, duration: 21 days, oral, diet, clinical chemistry); 10 mg/kg in series [18]; 2.4 mg/kg-day in series [8] (chronic, duration: 253 days, diet, M, histopathology: nonneoplastic); 0.2 mg/kg-day in [12] (subchronic, clinical chemistry); 0.2 mg/kg-day in [19]. Besides, the figures for the NOAEL in [2] (subchronic) and in [20] were 0.2 mg/kg-day and 20 mg/kg, respectively.

`O=C(O)CCCc1c[nH]c2ccccc12` [Indole-3-butyric acid] registered an LC50 in series [21] of 210 µg/mL (≈ 1030 µM). This compound came in with an LD50 in series [16] (acute, oral, mortality) of 1920 mg/kg-day.

Consider `C/C(=C/C=C/[C@@H](C)C(=O)O)[C@H]1CN[C@H](C(=O)O)[C@H]1CC(=O)O` [L-Domoic acid], for which the lowest-observed-adverse-effect level (LOAEL) in series [22] was determined as 5 mg/kg-day.

The compound `Nc1nc(N)nc(N)n1` [Melamine] displayed an NOAEL in series [2] (subchronic, duration: 13 weeks, oral) of 63 mg/kg-day. The LEL in series [23] (acute, duration: 3 days, oral, capsule, no effects) amounted to 456 mg/kg-day; in series [12] (diet) it was 400 mg/kg-day; in series [24] it was 181 mg/kg-day.

Take `O=c1cc(O)c1=O` [Moniliformin]: the NOAEL was determined as 3.8 mg/kg-day in series [7] (chronic, duration: 14 months, oral, diet); 1.4 mg/kg-day in [7] (subchronic, duration: 7 weeks, oral, diet); 6 mg/kg-day in [2] (short-term, duration: 28 days, oral, gavage, M, Sprague-Dawley, clinical signs); 0.92 mg/kg-day in series [25]; 1.6 mg/kg-day in [26]; 2.3 mg/kg-day in series [27].

For the compound `[S]` [Sulfur], the LD50 in [2] (oral) is over 1760 mg/kg; the LD50 in series [3] (oral, unspecified) was over 100 µg/piece; the LD50 (acute, oral, unspecified, mortality) is over 5000 mg/kg. Further, the NOAEL in [2] (short-term, duration: 28 days, no effects) was over 1000 mg/kg-day; in series [2] (subchronic, duration: 90 days, no effects), 1000 mg/kg-day. For the same compound, the LC50 was over 1330 mg/kg-day in series [28]; over 0.063 µg/mL in [23] (acute, duration: 96 hours, mortality); over 1580 mg/kg in series [29]. For the same compound, the NOEC in series [23] (chronic/long-term, duration: 28 days, growth) is over 0.063 mg/L.
